Measured values taken from patent US10647694B2, “Diphenylaminopyrimidine and triazine compound, and pharmaceutical composition and use thereof” (ARROMAX PHARMATECH CO., LTD., priority 2016, dated 2020).
Like-named read-outs stand apart in the source and are kept apart here.

How the values were obtained:
ALK enzyme = ALK enzyme (Homo sapiens, UniProt Q9UM73); test: In-vitro ALK kinase inhibitory activity (HTRF kinEASE TK kit); type: biochemical; conditions: inhibitory activity for ALK enzyme
Procedure, shortened: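 HTRF kinEASE TK format using wild-type ALK and the L1196M and F1174L mutants, with TK-biotin substrate and ATP at enzyme-specific concentrations. Compound was preincubated with enzyme for 10 min, followed by a 60 min reaction and 1 h detection with Eu-cryptate antibody and SA-XL665 (665/615 nm). IC50 was fitted from inhibition relative to the controls.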

NCI-H2228 cells = test: Tumor cell growth inhibition test (CCK8 detection), NCI-H2228; type: cell-based, human
Description: (§1) Growth Inhibition Test of the Series of Compounds on Various Tumor Cells (CCK8 Detection)
(3) NCI-H2228 human non-small cell lung cancer cell line, RPMI 1640+10% FBS+1% Sodium Pyruvate;
(§2) (1) Cell culture • a) Cells in logarithmic growth phase were collected, counted, and re-suspended in a complete medium. • b) The cell concentration was adjusted to an appropriate concentration, and inoculated into a 96-well plate in an amount of 100 μl of cell suspension per well. • c) The cells were incubated for 24 hrs in an incubator at 37° C. with 100% relative humidity and 5% CO2.
(§3) (2) Test of relative inhibition rate • 1) Cells in logarithmic growth phase were collected, counted, and re-suspended in a complete medium. The cell concentration was adjusted to an appropriate concentration (determined according to the optimal test result of cell density), and inoculated into a 96-well plate in an amount of 100 μl of cell suspension per well. The cells were incubated for 24 hrs in an incubator at 37° C. with 100% relative humidity and 5% CO2. • 2) The compound to be tested was diluted with the medium to the corresponding action concentration, and […] were added in an amount of 25 µl/well.
(§4) The IC50 curve was fitted using the software Graphpad Prism 5 and using the calculation formula log(inhibitor) vs response and the IC50 value was calculated.

Ba/F3 cells = test: Tumor cell growth inhibition test (CCK8 detection), Ba/F3; type: cell-based, mouse
Description: as §1
(1) Ba/F3 mouse IL-3 dependent pro-B lymphocyte cell line, RPMI 1640+10% FBS+10 ng/ml Interleukin-3+1% Sodium Pyruvate;
as §2, §3, §4

Karpas 299 cells = test: Tumor cell growth inhibition test (CCK8 detection), Karpas 299; type: cell-based, human
Description: as §1
(2) Karpas 299 human T lymphoma cell line, RPMI 1640+10% FBS+1% Sodium Pyruvate;
as §2, §3, §4

NCI-H3122 cells = test: Tumor cell growth inhibition test (CCK8 detection), NCI-H3122; type: cell-based, human
Description: as §1
(4) NCI-H3122 human lung cancer cell line, RPMI 1640+10% FBS+1% Sodium Pyruvate;
as §2, §3, §4

[1] = test system: NCI-H2228 nude mice xenografts; test: In-vivo pharmacodynamic evaluation, NCI-H2228 subcutaneous xenograft; conditions: 10 mg/kg qd intragastric, 14 days, day 21
Description: In-Vivo Pharmacodynamic Evaluation
SCID Beige mice, female, 5-6 weeks old, weighed 18+2 g, purchased from Beijing HFK Bioscience Co., Ltd., bred in an SPF level environment.
NCI-H2228 cells were cultured in PRMI-1640 containing 10% fetal bovine serum (FBS) and 1% sodium pyruvate. The cells were cultured in an incubator at 37° C. with 5% CO2.
Establishment of subcutaneous tumor transplantation model in nude mice by cell inoculation: Tumor cells in logarithmic growth phase were collected, counted and re-suspended in PRMI-1640 basal medium. Matrigel was added at a ratio of 1:1, and the concentration of the cell suspension was adjusted to 6×10^7/ml. Tumor cells were subcutaneously inoculated to the right back of nude mice in an amount of 6×10^6/0.1 mL/mouse using a 1 mL syringe (with a […]).
When the tumor volume reached about 200 mm^3, the animals were randomly grouped according to randomized block method, so that the difference in tumor volume of each group was within 10% of the mean. There were 5 groups in total, each having 8 animals. The day of grouping was recorded as Day 0, and the animals were administered immediately after grouping. Compound I-3 of the present invention and Ceritinib were orally administered once a day for consecutive 14 days, and then observed for 7 days. The weight and tumor size of the animals were measured twice a week during the experiment. The clinical symptoms were observed and recorded daily. After the animals were weighed for the last time on Day 21, they were sacrificed by euthanization with CO2. The tumors were taken, weighed and photographed, and the average tumor size was calculated, to investigate the growth inhibitory effect of the test substance Compound I-3 on human lung cancer NCI-H2228 nude mice xenografts under the experimental conditions.
When the tumor in the tumor-bearing mice grew to a measurable size, the mice were randomly divided into 5 groups according to the principle of equal mean tumor volume using SPSS 17.0 software. Compound I-3 was administered by intragastric administration at a dosage of 30, 10, and 3 mg/kg per day. The positive control ceritinib was administered by intragastric administration at a dose of 10 mg/kg per day in a volume of 0.1 ml/10 g. These agents were administered once a day for consecutive 14 days. The animals in the negative control group were given an equal amount of solvent (1% DMSO in physiological saline). During the administration and recovery periods, the body weight and tumor size of the mice were measured 2-3 times per week. The tumor volume and relative tumor volume were calculated based on the measured data. The tumor volume (TV) was calculated by a formula below: TV=1/2×a×b^2, where a and b represent the major and minor diameters of the tumor, respectively. According to the measurement results, the relative tumor volume (RTV) was calculated, by a formula below: RTV=Vt/V0, where V0 is the tumor volume at the start of the experiment, and Vt is the tumor volume measured each time.

[2] = Homo sapiens, NCI-H2228, 72 hrs
[3] = Homo sapiens, KARPAS-299, 72 hrs
[4] = Homo sapiens, NCI-H3122, 72 hrs

Chain of ALK enzyme (Q9UM73 19-1620 limits assumed): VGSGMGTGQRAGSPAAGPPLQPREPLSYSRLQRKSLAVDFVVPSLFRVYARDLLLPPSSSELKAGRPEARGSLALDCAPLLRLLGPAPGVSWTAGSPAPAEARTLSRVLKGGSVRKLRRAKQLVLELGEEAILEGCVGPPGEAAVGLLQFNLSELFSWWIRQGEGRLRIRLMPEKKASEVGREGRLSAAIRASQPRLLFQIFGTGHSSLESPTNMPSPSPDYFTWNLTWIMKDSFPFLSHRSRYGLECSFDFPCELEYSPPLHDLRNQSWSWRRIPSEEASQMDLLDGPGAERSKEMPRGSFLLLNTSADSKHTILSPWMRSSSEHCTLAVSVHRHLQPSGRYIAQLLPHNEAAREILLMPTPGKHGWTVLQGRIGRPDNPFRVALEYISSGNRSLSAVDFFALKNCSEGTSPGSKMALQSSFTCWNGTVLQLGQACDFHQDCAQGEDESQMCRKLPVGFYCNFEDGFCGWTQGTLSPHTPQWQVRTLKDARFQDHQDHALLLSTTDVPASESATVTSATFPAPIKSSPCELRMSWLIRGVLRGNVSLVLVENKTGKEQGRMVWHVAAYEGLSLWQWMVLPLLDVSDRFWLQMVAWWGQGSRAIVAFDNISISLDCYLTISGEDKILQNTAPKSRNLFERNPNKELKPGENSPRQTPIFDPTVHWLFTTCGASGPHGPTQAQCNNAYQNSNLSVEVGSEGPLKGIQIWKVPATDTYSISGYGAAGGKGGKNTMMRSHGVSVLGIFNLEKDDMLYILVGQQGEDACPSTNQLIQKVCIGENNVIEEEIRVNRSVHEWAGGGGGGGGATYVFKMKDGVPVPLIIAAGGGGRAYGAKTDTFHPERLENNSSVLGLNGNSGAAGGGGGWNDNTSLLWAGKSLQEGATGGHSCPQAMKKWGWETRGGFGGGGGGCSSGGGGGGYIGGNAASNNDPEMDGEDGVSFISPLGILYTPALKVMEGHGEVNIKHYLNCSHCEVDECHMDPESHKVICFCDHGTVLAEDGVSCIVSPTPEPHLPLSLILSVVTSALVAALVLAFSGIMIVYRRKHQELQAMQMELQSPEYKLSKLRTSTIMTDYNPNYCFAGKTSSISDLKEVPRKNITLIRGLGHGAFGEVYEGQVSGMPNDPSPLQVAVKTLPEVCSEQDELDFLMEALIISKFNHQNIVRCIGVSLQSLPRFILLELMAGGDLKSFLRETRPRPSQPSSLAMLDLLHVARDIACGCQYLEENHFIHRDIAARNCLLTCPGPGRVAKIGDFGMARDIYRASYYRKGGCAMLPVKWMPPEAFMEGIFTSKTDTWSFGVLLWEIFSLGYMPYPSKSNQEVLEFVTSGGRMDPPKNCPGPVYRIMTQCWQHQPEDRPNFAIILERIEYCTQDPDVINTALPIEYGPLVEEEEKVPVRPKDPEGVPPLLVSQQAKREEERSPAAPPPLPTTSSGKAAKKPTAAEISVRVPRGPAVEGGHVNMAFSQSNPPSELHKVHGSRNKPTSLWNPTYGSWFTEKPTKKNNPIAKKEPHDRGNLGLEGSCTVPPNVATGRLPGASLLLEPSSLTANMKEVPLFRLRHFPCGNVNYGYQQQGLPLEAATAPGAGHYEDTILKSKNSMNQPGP

IC50 (ALK enzyme; read-out: IC50 range) [nM]	IC50 (NCI-H2228 cells; 72 hrs) [nM]	IC50 (Ba/F3 cells; 72 hrs) [nM]	IC50 (Karpas 299 cells; 72 hrs) [nM]	IC50 (NCI-H3122 cells; 72 hrs) [nM]	IC50 (NCI-H2228 cells; [2]) [nM]	IC50 (Ba/F3 cells; Mus musculus, BaF3, 72 hrs) [nM]	IC50 (Karpas 299 cells; [3]) [nM]	IC50 (NCI-H3122 cells; [4]) [nM]	IC50 (ALK enzyme; listed as 3, read-out: IC50 range) [nM]	Compound	IR (%) [1] [%]	RTV d21 [1]	T/C (%) [1] [%]
1 to 10	45.5	1990	5.23	6.09						5-chloro-N2-(2-D6-ethoxy-5-methyl-4-(piperidin-4-yl)phenyl)-N4-(2-(isopr opylsulfonyl)phenyl))pyrimidin-2,4-diamine [Compound I-14]			
					111	2890	45.7	28.4		[2H]C([2H])([2H])C([2H])(Oc1cc(C2CCNCC2)c(C)cc1Nc1ncc(Cl)c(Nc2ccccc2S(=O)(=O)C(C)C)n1)C([2H])([2H])[2H]			
	41.3	1240	7.64	4.03					1 to 10	COc1cc(C2CCNCC2)c(C)cc1Nc1ncc(Cl)c(Nc2ccccc2S(=O)(=O)C(C)C)n1 [Compound I-3, 5-chloro-N4-(2-(isopropylsulfonyl)phenyl)-N2-(2-D3-methoxy-5-methyl-4-(piperidin-4-yl)phenyl)pyrimidin-2,4-diamine]			
					97.1	2390	35.6	27.2		Cc1cc(Nc2ncc(Cl)c(Nc3ccccc3S(=O)(=O)C(C)C)n2)c(OC(C)C)cc1C1CCNCC1 [Ceritinib, reference compound]	26.07	2.68 ± 0.28	71.47
